In PubChem BioAssay (NCI) one finds GI50 and TGI data, which are given here for eight compounds.

Some test systems named below: CCRF-CEM leukemia; K-562 leukemia; M14 melanoma; MDA-MB-435; NCI-H522 lung; NCI/ADR-RES ovarian; RXF 393 renal; SF-539 CNS; SK-OV-3 ovarian; TK-10 renal.
Holding throughout (assay): growth of human tumour cells (NCI), 48 h

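In this assay, cells in 96-well plates receive the compound at five concentrations for 48 hours. Endpoints are linearly interpolated between the surrounding concentrations. GI50: concentration for 50% inhibition of growth. At the TGI there is no net growth.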

For the compound `ClCC#CCSc1ncnc2c1ncn2CC#CCCl`, the GI50 is 1800 nM with CCRF-CEM leukemia; 3.15 µM in the test on K-562 leukemia; 1.47 µM with M14 melanoma; 2270 nM in the test on MDA-MB-435; 1140 nM in the test on NCI-H522 lung; 1.77 µM in the test on NCI/ADR-RES ovarian. The GI50 in the test on RXF 393 renal was 1010 nM; in the test on SF-539 CNS, 2.1 µM; with SK-OV-3 ovarian, 1.86 µM; with TK-10 renal, 2.94 µM. The TGI in the test on CCRF-CEM leukemia is 15.2 µM; in the test on K-562 leukemia, 40.4 µM; with M14 melanoma, 3.13 µM; in the test on MDA-MB-435, 9.04 µM; in the test on NCI-H522 lung it was 2.73 µM; in the test with NCI/ADR-RES ovarian, 4.92 µM. Moreover, the TGI is 2.29 µM in the test on RXF 393 renal, 4.21 µM in the test on SF-539 CNS, 3.95 µM in the test with SK-OV-3 ovarian and 13.9 µM in the test on TK-10 renal.

For `C1CC[N-]CC1.CC(=N\O)/C(C)=N/O.CC(=N\O)/C(C)=N/O.[CH2-]CCN1CCOCC1.[Co+2]`, the GI50 was more than 100 µM in the test with K-562 leukemia; more than 100 µM in the test on M14 melanoma; more than 100000 nM in the test on MDA-MB-435; more than 100000 nM in the test with NCI-H522 lung; more than 100 µM in the test with NCI/ADR-RES ovarian; more than 100000 nM with RXF 393 renal. Further, the GI50 with SF-539 CNS, with SK-OV-3 ovarian and in the test with TK-10 renal was more than 100 µM each time. Further, the TGI with K-562 leukemia, in the test with M14 melanoma, in the test on MDA-MB-435, in the test on NCI-H522 lung, in the test on NCI/ADR-RES ovarian and in the test with RXF 393 renal was more than 100 µM each time. Also, the TGI in the test with SF-539 CNS, with SK-OV-3 ovarian and with TK-10 renal was more than 100 µM in each case.

For `COc1ccc(-c2c(N)n[nH]c2-c2cc(OC)c(OC)c(OC)c2)cc1`, the GI50 was 238 nM with CCRF-CEM leukemia; 0.043 µM in the test on K-562 leukemia; 0.135 µM in the test on M14 melanoma; 26.2 nM in the test on MDA-MB-435; 223 nM with NCI-H522 lung; 0.2 µM in the test with NCI/ADR-RES ovarian. For the same compound, the values for the GI50 with RXF 393 renal, with SF-539 CNS and with SK-OV-3 ovarian were 239 nM, 0.202 µM and 0.211 µM, respectively. The TGI with CCRF-CEM leukemia is more than 100 µM; with K-562 leukemia it was more than 100 µM; in the test on M14 melanoma it was more than 100 µM; in the test on MDA-MB-435, 0.0907 µM; with NCI-H522 lung it was 24 µM; in the test on NCI/ADR-RES ovarian, 2.22 µM. The results for the TGI with RXF 393 renal, with SF-539 CNS and in the test with SK-OV-3 ovarian were 0.74 µM, 0.865 µM and 52.4 µM, respectively.

With `CN1CCN(CCOc2ccc(-c3cnc4c(-c5ccc(F)cc5)cnn4c3)cc2)CC1`, the GI50 was 1550 nM in the test with CCRF-CEM leukemia; 0.365 µM in the test on K-562 leukemia; 1.96 µM in the test on M14 melanoma; 1730 nM in the test with MDA-MB-435; 1870 nM in the test with NCI-H522 lung; 2.2 µM in the test with NCI/ADR-RES ovarian. Besides, the GI50 in the test with RXF 393 renal is 1650 nM; with SF-539 CNS it was 1.27 µM; in the test with TK-10 renal, 1.82 µM. Moreover, the TGI with CCRF-CEM leukemia came to 3.82 µM; in the test with K-562 leukemia it was 2.3 µM; with M14 melanoma, 3.7 µM; in the test with MDA-MB-435, 3.18 µM; with NCI-H522 lung, 3.94 µM; in the test with NCI/ADR-RES ovarian, 4.88 µM. Besides, the results for the TGI with RXF 393 renal, in the test on SF-539 CNS and in the test on TK-10 renal were 3.27 µM, 2.57 µM and 3.5 µM, respectively.

Take `COc1cc(-c2nn(-c3ccc(NC(=O)c4cc(Cl)cc(Cl)c4)cc3)cc2-c2ccncc2)ccc1Cl`: the GI50 in the test with CCRF-CEM leukemia was 5770 nM; in the test on K-562 leukemia it was 2.91 µM; with M14 melanoma, 7.39 µM; with MDA-MB-435, more than 100000 nM; with NCI/ADR-RES ovarian it was more than 100 µM; with RXF 393 renal, 2140 nM. For the same compound, the GI50 was 4.73 µM in the test on SF-539 CNS, more than 100 µM with SK-OV-3 ovarian and more than 100 µM in the test with TK-10 renal. Further, the TGI in the test on CCRF-CEM leukemia, with K-562 leukemia, with M14 melanoma, in the test with MDA-MB-435, in the test on NCI/ADR-RES ovarian and in the test on RXF 393 renal was more than 100 µM each time. Further, the TGI in the test on SF-539 CNS, with SK-OV-3 ovarian and with TK-10 renal was more than 100 µM throughout.

For the compound `O=C(CC(=O)c1ccccc1)c1ccccc1`, the GI50 with K-562 leukemia was 8.31 µM; in the test with M14 melanoma it was 14.1 µM; in the test on MDA-MB-435, 29300 nM; in the test with NCI-H522 lung it was 29300 nM; in the test on NCI/ADR-RES ovarian, 16.8 µM; with RXF 393 renal, 22000 nM. The GI50 is 4.5 µM in the test on SF-539 CNS, 22.2 µM in the test on SK-OV-3 ovarian and 20.5 µM in the test on TK-10 renal. Further, the TGI in the test with K-562 leukemia is more than 100 µM; with M14 melanoma, 44.7 µM; with MDA-MB-435, more than 100 µM; with NCI-H522 lung, more than 100 µM; with NCI/ADR-RES ovarian it was 44 µM; in the test with RXF 393 renal it was 88 µM. The TGI in the test with SF-539 CNS is 16.2 µM; in the test with SK-OV-3 ovarian it was more than 100 µM; in the test on TK-10 renal, 93.7 µM.

`O=C(c1ccccc1)C1C(C(=O)c2ccccc2)C(c2ccccc2)N(c2ccccc2)C1c1ccccc1` (configuration not stated): the TGI in the test with CCRF-CEM leukemia, in the test with K-562 leukemia, in the test with M14 melanoma, with MDA-MB-435, in the test on NCI-H522 lung and with NCI/ADR-RES ovarian was more than 100 µM each time. The TGI in the test on RXF 393 renal, in the test on SF-539 CNS and with TK-10 renal was more than 100 µM in each case.

Consider `Cc1ccc2c(c1)C(=O)c1c-2n(CCCN=[N+]=[N-])c(=O)c2cc([N+](=O)[O-])ccc12`, for which the GI50 in the test with CCRF-CEM leukemia is 31700 nM; in the test on K-562 leukemia, 39.4 µM; in the test on M14 melanoma it was more than 100 µM; in the test with MDA-MB-435, more than 100000 nM; in the test on NCI-H522 lung, 25800 nM; in the test with NCI/ADR-RES ovarian it was 94 µM. The results for the GI50 with RXF 393 renal, with SF-539 CNS and with TK-10 renal were more than 100000 nM, more than 100 µM and 99.8 µM, respectively. Also, the TGI in the test with CCRF-CEM leukemia, in the test on K-562 leukemia, in the test on M14 melanoma, in the test on MDA-MB-435, in the test on NCI-H522 lung and with NCI/ADR-RES ovarian was more than 100 µM each time. The TGI in the test with RXF 393 renal, with SF-539 CNS and in the test on TK-10 renal was more than 100 µM each time.
